Experimental findings from BindingDB's records for doi:10.1021/jm00051a003 (University of Washington, 1995) are described below.

This test can be described thus: Tested for the binding affinity against the Delta opioid receptor in guinea pig brain using [3H]DPDPE.

On to `Oc1ccc2c3c1OC1[C@@H](OCc4ccc5ccccc5c4)CCC4(O)C(C2)N(CC2CC2)CCC314` (stereo not given in full), for which the IC50 came out at 20 nM.
As for `Oc1ccc2c3c1OC1[C@H](OCc4ccc5ccccc5c4)CCC4(O)C(C2)N(CC2CC2)CCC314` (stereo not given in full), the IC50 was 25 nM.
As to `Oc1ccc2c3c1OC1[C@@H](OCc4cccc5ccccc45)CCC4(O)C(C2)N(CC2CC2)CCC314` (stereo not given in full), the concentration for half-maximal inhibition (IC50) came to 6.6 nM.
Next, `Oc1ccc2c3c1OC1[C@@H](OCc4ccc(-c5ccccc5)cc4)CCC4(O)C(C2)N(CC2CC2)CCC314` (stereo not given in full): 19 nM.
Compound `Oc1ccc2c3c1OC1[C@@H](OCc4ccccc4)CCC4(O)C(C2)N(CC2CC2)CCC314` (stereo not given in full) registered an IC50 of 1.4 nM.
Next, `Oc1ccc2c3c1OC1[C@H](OCc4cccc5ccccc45)CCC4(O)C(C2)N(CC2CC2)CCC314` (stereo not given in full): 5.5 nM; `Oc1ccc2c3c1OC1[C@@H](OCc4c5ccccc5cc5ccccc45)CCC4(O)C(C2)N(CC2CC2)CCC314` (stereo not given in full): 36 nM; `Oc1ccc2c3c1OC1[C@H](OCc4ccc(-c5ccccc5)cc4)CCC4(O)C(C2)N(CC2CC2)CCC314` (stereo not given in full): 11 nM.
As to `Oc1ccc2c3c1OC1[C@H](OCc4c5ccccc5cc5ccccc45)CCC4(O)C(C2)N(CC2CC2)CCC314` (stereo not given in full), the IC50 came to 48 nM.
Next, `O=C(COC1CCC2(O)C3Cc4ccc(O)c5c4C2(CCN3CC2CC2)C1O5)C1[C@H]2C[C@@H]3C[C@@H](C[C@H]1C3)C2` (stereo partly drawn) [17-(cyclopropylmethyl)-4,5alpha-epoxy-3,14-dihydroxy-6beta-morphinanyl 2-adamantyl-2-oxoethylether]: 30 nM.
